≈ marks a conversion by molar mass, not a printed value. Where two headings read alike, the source gives them in different places.
How the values were obtained:
[1] = test system: platelet aggregation induced by platelet-activating factor (PAF); test: Antiplatelet assay, PAF-induced aggregation; format: cell-based, rabbit; conditions: for Inhibition of PAF-induced platelet aggregation in words: Table 5; for Percent aggregation, PAF: PAF 2 ng/ml
Experimental: (§1) c. Antiplatelet assay. Blood, collected from the marginal ear vein of rabbits was mixed with EDTA to a final concentration of 6 mM and centrifuged at 90 g for 10 mm at room temperature to obtain platelet-rich plasma. The latter was further centrifuged at 500 g for 10 mm and the platelets were washed with Tyrode's solution without EDTA. After centrifugation at the same conditions, the platelets were suspended in Tyrode's solution with the following compositions (mM): NaCl (136.8), KCl (2.8), NaNCO3(11.9), MgCl2(1.1), NaH2PO4(0.33), CaCl2(1.0), and glucose (11.2). Platelet numbers were determined with a Coulter Counter (Model ZM) and adjusted to 4.5×10^8 platelets/ml.
(§2) Aggregation was measured by the turbidimetric method [O'brien, J. R. J. Clin. Pathol. 1962, 15,452] with a dual-channel Lumi aggregometer (Model 1020, Payton, Canada). All glass ware was siliconized. Test compounds were added one minute before the addition of the aggregation inducer and the platelet suspension was stirred at 900 rpm. The percentage of aggregation was calculated as previously described [Teng, C. M.; Chen, W. Y.; Ko, W. C.; Ouyang, C. Biochem. Biophys. Acta. 1987, 924, 375].

[2] = test system: platelet aggregation induced by collagen; test: Antiplatelet assay, collagen-induced aggregation; format: cell-based, rabbit; conditions: for IC50: Oryctolagus cuniculus, Platelet, read-out: IC50, collagen-induced platelet aggregation (Table 5); for IC50 / Percent aggregation, collagen: collagen 10 μg/ml; for Inhibition of collagen-induced platelet aggregation in words: Table 5
Experimental: as §1, §2

[3] = test system: platelet aggregation induced by thrombin; test: Antiplatelet assay, thrombin-induced aggregation; format: cell-based, rabbit; conditions: for Inhibition of thrombin-induced platelet aggregation in words: Table 5; for Percent aggregation, thrombin: thrombin 0.1 U/ml
Experimental: as §1, §2

[4] = test system: platelet aggregation induced by arachidonic acid (AA); test: Antiplatelet assay, arachidonic acid-induced aggregation; format: cell-based, rabbit; conditions: for IC50: Oryctolagus cuniculus, Platelet; for IC50 / Percent aggregation, AA: AA 100 μM; for Inhibition of AA-induced platelet aggregation in words: Table 5
Experimental: as §1, §2

lung carcinoma (A-549) = test: In vitro cytotoxicity, A-549; conditions: Homo sapiens; for IC50: A549, 96 h, read-out: ED50 A-549
[5] = test system: P-gp-expressing epidermoid carcinoma of the nasopharynx (KB-VIN); test: In vitro cytotoxicity, KB-VIN; conditions: Homo sapiens, KBVIN, 96 h, read-out: ED50 KB-VIN
[6] = test system: human ovarian cancer (1A9); test: In vitro cytotoxicity, 1A9; conditions: 96 h, read-out: ED50 1A9
bone (HOS) = test: In vitro cytotoxicity, HOS; conditions: Homo sapiens; for IC50: 96 h, read-out: ED50 HOS; for inhibition at 20 µg/mL: read-out: Inhibition at highest test concentration (in brackets), HOS
glioblastoma (U-87-MG) = test: In vitro cytotoxicity, U-87-MG; conditions: Homo sapiens; for IC50: 96 h, read-out: ED50 U-87-MG; for inhibition at 20 µg/mL: read-out: Inhibition at highest test concentration (in brackets), U-87-MG
melanoma (SKMEL-2) = test: In vitro cytotoxicity, SKMEL-2; conditions: Homo sapiens; for IC50: SK-MEL-2, 96 h, read-out: ED50 SKMEL-2
breast cancer (MCF-7) = test: In vitro cytotoxicity, MCF-7; conditions: Homo sapiens; for IC50: MCF7, 96 h, read-out: ED50 MCF-7; for inhibition at 20 µg/mL: MCF7, read-out: Inhibition at highest test concentration (in brackets), MCF-7
bovine brain tubulin = test: Tubulin polymerization assay (antimicrotubule assay); conditions: read-out: ITP (inhibition of tubulin polymerization) IC50; tubulin […] (12 μM), 26° C., 20 min
[7] = test system: epidermoid carcinoma of the nasopharynx (KB); test: In vitro cytotoxicity, KB; conditions: Homo sapiens; for IC50: 96 h, read-out: ED50 KB
prostate cancer (PC3) = test: In vitro cytotoxicity, PC3; conditions: Homo sapiens; for IC50: 96 h, read-out: ED50 PC3; for inhibition at 20 µg/mL: read-out: Inhibition at highest test concentration (in brackets), PC3
[8] = test system: ileocecal carcinoma (HCT-8); test: In vitro cytotoxicity, HCT-8; conditions: Homo sapiens; for IC50: HCT-8, 96 h, read-out: ED50 HCT-8
[9] = compound 100 μg/ml, 37° C., 1 min preincubation
[10] = 37° C., 1 min preincubation, read-out: IC50, platelet aggregation induced by arachidonic acid (in vitro) (Table 6)
[11] = read-out: IC50, AA-induced platelet aggregation (Table 5)

COc1nc(-c2ccccc2)nc2ccccc12 [Compound 69, 4-Methoxy-2-phenylquinazoline]
Inhibition of PAF-induced platelet aggregation in words [1]: poor inhibitors | Percent aggregation, PAF ([1]; compound 20 μg/ml): 87.9 ± 1.8(4) % | Percent aggregation, PAF ([1]; compound 50 μg/ml): 38.1 ± 8.3(4) % | Percent aggregation, PAF ([1]; compound 100 μg/ml): 2.1 ± 1.8(4) % | IC50 [2]: 8.47 µM | Inhibition of collagen-induced platelet aggregation in words [2]: relatively stronger inhibitors | Percent aggregation, collagen ([2]; compound 0.2 μg/ml): 88.4 ± 1.9(4) % | Percent aggregation, collagen ([2]; compound 0.5 μg/ml): 76.2 ± 3.7(4) % | Percent aggregation, collagen ([2]; compound 1 μg/ml): 52.6 ± 7.5(4) % | Percent aggregation, collagen ([2]; compound 2 μg/ml): 43.0 ± 6.4(4) % | Percent aggregation, collagen ([2]; compound 5 μg/ml): 31.5 ± 6.4(4) % | Percent aggregation, collagen ([2]; compound 10 μg/ml): 1.1 ± 0.9(4) % | Percent aggregation, collagen ([2]; compound 20 μg/ml): 0.0 ± 0.0(4) % | Percent aggregation, collagen ([2]; compound 100 μg/ml): 0.0 ± 0.0(4) % | Inhibition of thrombin-induced platelet aggregation in words [3]: poor inhibitors | Percent aggregation, thrombin ([3]; compound 20 μg/ml): 88.1 ± 0.8(3) % | Percent aggregation, thrombin ([3]; compound 50 μg/ml): 13.3 ± 5.3(3) % | Percent aggregation, thrombin [3, 9]: 2.8 ± 2.3(3) % | IC50 [4, 10]: 7.2 µM | IC50 [4, 11]: 7.2 µM | Inhibition of AA-induced platelet aggregation in words [4]: relatively stronger inhibitors | Percent aggregation, AA ([4]; compound 0.5 μg/ml): 86.0 ± 1.2(4) % | Percent aggregation, AA ([4]; compound 1 μg/ml): 65.0 ± 8.1(4) % | Percent aggregation, AA ([4]; compound 2 μg/ml): 35.3 ± 14.9(4) % | Percent aggregation, AA ([4]; compound 5 μg/ml): 15.0 ± 11.8(4) % | Percent aggregation, AA ([4]; compound 10 μg/ml): 0.0 ± 0.0(4) % | Percent aggregation, AA ([4]; compound 100 μg/ml): 0.0 ± 0.0(4) %

CCOc1nc(-c2ccccc2)nc2ccccc12 [Compound 70, 4-Ethoxy-2-phenylquinazoline]
Inhibition of PAF-induced platelet aggregation in words [1]: poor inhibitors | Percent aggregation, PAF ([1]; compound 20 μg/ml): 88.8 ± 1.0(4) % | Percent aggregation, PAF ([1]; compound 50 μg/ml): 19.8 ± 7.0(4) % | Percent aggregation, PAF ([1]; compound 100 μg/ml): 2.1 ± 1.8(4) % | IC50 [2]: 9.2 µM | Inhibition of collagen-induced platelet aggregation in words [2]: relatively stronger inhibitors | Percent aggregation, collagen ([2]; compound 0.1 μg/ml): 86.4 ± 2.9(4) % | Percent aggregation, collagen ([2]; compound 0.2 μg/ml): 78.5 ± 4.7(4) % | Percent aggregation, collagen ([2]; compound 0.5 μg/ml): 63.9 ± 7.4(4) % | Percent aggregation, collagen ([2]; compound 1 μg/ml): 47.1 ± 6.6(4) % | Percent aggregation, collagen ([2]; compound 2 μg/ml): 35.0 ± 10.3(4) % | Percent aggregation, collagen ([2]; compound 5 μg/ml): 30.1 ± 9.0(4) % | Percent aggregation, collagen ([2]; compound 10 μg/ml): 19.3 ± 9.8(4) % | Percent aggregation, collagen ([2]; compound 20 μg/ml): 10.3 ± 6.0(4) % | Percent aggregation, collagen ([2]; compound 50 μg/ml): 0.0 ± 0.0(4) % | Percent aggregation, collagen ([2]; compound 100 μg/ml): 0.0 ± 0.0(4) % | Inhibition of thrombin-induced platelet aggregation in words [3]: poor inhibitors | Percent aggregation, thrombin ([3]; compound 20 μg/ml): 91.5 ± 1.2(4) % | Percent aggregation, thrombin ([3]; compound 50 μg/ml): 75.1 ± 7.3(4) % | Percent aggregation, thrombin [3, 9]: 11.7 ± 6.5(4) % | IC50 [4, 10]: 1.6 µM | IC50 [4, 11]: 1.6 µM | Inhibition of AA-induced platelet aggregation in words [4]: relatively stronger inhibitors | Percent aggregation, AA ([4]; compound 0.1 μg/ml): 85.5 ± 2.0(5) % | Percent aggregation, AA ([4]; compound 0.2 μg/ml): 76.9 ± 5.4(5) % | Percent aggregation, AA ([4]; compound 0.5 μg/ml): 33.8 ± 13.4(5) % | Percent aggregation, AA ([4]; compound 1 μg/ml): 0.0 ± 0.0(5) % | Percent aggregation, AA ([4]; compound 100 μg/ml): 0.0 ± 0.0(5) %

COc1cc(OC)cc(C2NC(=O)c3ccccc3N2)c1 (racemic) [Compound 67, 2,3-Dihydro-2-(3′,5′-dimethoxyphenyl)-4-quinazolinone]
IC50 (lung carcinoma (A-549)): 5 µg/mL (≈ 17.6 µM) | IC50 [5]: 1.6 µg/mL (≈ 5.63 µM) | IC50 [6]: 1.92 µg/mL (≈ 6.75 µM) | IC50 (bone (HOS)): > 20 µg/mL | inhibition at 20 µg/mL (bone (HOS)): 41% | IC50 (glioblastoma (U-87-MG)): > 20 µg/mL | inhibition at 20 µg/mL (glioblastoma (U-87-MG)): 37% | IC50 (melanoma (SKMEL-2)): 4.4 µg/mL (≈ 15.5 µM) | IC50 (breast cancer (MCF-7)): > 20 µg/mL | inhibition at 20 µg/mL (breast cancer (MCF-7)): 49% | IC50 (bovine brain tubulin): 12 ± 3 µM | IC50 [7]: 4.7 µg/mL (≈ 16.5 µM) | IC50 (prostate cancer (PC3)): > 20 µg/mL | inhibition at 20 µg/mL (prostate cancer (PC3)): 44% | IC50 [8]: 3 µg/mL (≈ 10.6 µM)

COc1ccc(OC)c(C2NC(=O)c3ccccc3N2)c1 (racemic) [Compound 65, 2,3-Dihydro-2-(2′,5′-dimethoxyphenyl)-4-quinazolinone]
IC50 (lung carcinoma (A-549)): > 20 µg/mL | inhibition at 20 µg/mL (lung carcinoma (A-549); A549, read-out: Inhibition at highest test concentration (in brackets), A-549): 42% | IC50 [5]: 8.4 µg/mL (≈ 29.5 µM) | IC50 [6]: 10 µg/mL (≈ 35.2 µM) | IC50 (bone (HOS)): > 20 µg/mL | inhibition at 20 µg/mL (bone (HOS)): 40% | IC50 (glioblastoma (U-87-MG)): > 20 µg/mL | inhibition at 20 µg/mL (glioblastoma (U-87-MG)): 5% | IC50 (melanoma (SKMEL-2)): > 20 µg/mL | inhibition at 20 µg/mL (melanoma (SKMEL-2); SK-MEL-2, read-out: Inhibition at highest test concentration (in brackets), SKMEL-2): 44% | IC50 (breast cancer (MCF-7)): > 20 µg/mL | inhibition at 20 µg/mL (breast cancer (MCF-7)): 42% | IC50 (bovine brain tubulin): 32 ± 4 µM | IC50 [7]: > 20 µg/mL | inhibition at 20 µg/mL ([7]; read-out: Inhibition at highest test concentration (in brackets), KB): 40% | IC50 (prostate cancer (PC3)): > 20 µg/mL | inhibition at 20 µg/mL (prostate cancer (PC3)): 22% | IC50 [8]: > 20 µg/mL | inhibition at 20 µg/mL ([8]; HCT-8, read-out: Inhibition at highest test concentration (in brackets), HCT-8): 32%

Source: patent US6479499B1
